Assay results reported in patent publication US7645882B2, “Inhibitor of protein modification products formation” (priority 2003, dated 2010).

Key:
[1] = tested on: ORP150; experiment: ER stress inducing molecule expression in RIN-5F cells, western blot, ORP150; format: cell-based, rat; settings: TM-2002 200 μM, 50 μM and tunicamycin co-added
Procedure: Rat pancreatic β cell line (RIN-5F) was seeded in 6 well culture plate to 1.0×10^5 cells/well, and after 24 hours, TM-2002 in DMSO (200 mM, 50 mM) were added to be final concentration 200 μM, 50 μM. After another 1 hour, 0.2 μl of tunicamycin (Sigma) in methanol(1 mg/ml) was added. After culturing 8 hours, the cells were washed 2 ml of PBS(+) twice, and the cells were dissolved in 100 μl of lysate (50 mM Tris-HCl (pH 7.5), 150 mM NaCl, 100 mM NaF, 100 mM sodium phosphate (pH 7.4), 2 mM Na3VO4, 0.1% protease inhibitor cocktail (Sigma), 1% Triton X-100). To remove the insoluble fraction of this lysate, centrifuged at 12,000×g for 10 minutes and obtained the supernatant to give cell extract. The extract was quantified its protein concentration using DC protein assay kit (Bio Rad), and each samples (1 μg) was electrophoresed by SDS-PAGE and transferred to PVDF membrane. The membrane was blocked with 5% skimmed milk/0.1% Tween20-TBS for 1 hour at room temperature, and reacted with anti-ORP150 antibody in 5% skimmed milk/0.1% Tween20-TBS (2000 folds: specific antibody), anti-GRP78 antibody (Santa Cruz) in 5% skimmed milk/0.1% Tween20-TBS (100 folds) and anti-actin antibody (Sigma) in 5% skimmed milk/0.1% Tween20-TBS (200 folds) for 2 hours. […] The detected signal was analyzed by Lane analyzer (ATTO) and calculated the signal strength. […]

[2] = tested on: SHR/NDmcr-cp rats; experiment: In vivo endoplasmic reticula stress alleviation, anti-ORP150 immunostaining of kidney; design: species or system rat; settings: 100 mg/1 kg body weight by diet, 33 weeks aged
Procedure: Endoplasmic reticula stress alleviation effect by TM-2002 was examined using SHR/NDmcr-cp (Disease Model Cooperative Research Association) rats, which have been known their high blood pressure, hyperglycemia, hyperlipemia, obesity and hyperinsulinemia and renal function disorder while aging, and immunostained utilizing anti-ORP150 antibody. The stained section samples which were used for staining were prepared as following manner; SHR/NDmcr-cp rats which were administered the desired amount of test compound TM-2002 (dose: 100 mg/1 kg body weight) by diet (30 g daily), the rats which were administered no drug and SHR (hypertension) rats and Wistar Kyoto rats (control); kidney tissues of each rat were obtained after the end of drug administration period (33 weeks aged); all of tissues were fixed by Carnoy and embedded in paraffin. The staining of each samples was carried out by Catalyzed Sifnal Amplification(CSA) System (DAKO) according to their protocol. […] The samples were observed by microscopic visualization with optical microscope (Olympus) and analyzed the result. […]

[3] = Solubility test at different pH; format: physicochemical; settings: for condition of the solution: 10 mg per 1 ml purified water
Procedure: TM-2002 was added in purified water to be 10 mg per 1 ml and added hydrochloride to adjust to pH 2.0 and solved. Then, this solution was adjusted to pH 7.0, 8.0 and 2,0 (unadjust) by 1N sodium hydrate to prepare 3 solutions. These solutions were put on warming, dark cold place and after 24 hours, conditions of the solutions were observed. […] As the result, stable TM-2002 injectable formulation in its solubility may be prepared by keeping acidic condition using inorganic acid such as hydrochloride, sulfuric acid, or various organic acid, or by using TM-2002 hydrochloride or sulfate as material which is made from said acids.

[4] = tested on: ischemia-reperfusion renal failure model rat; experiment: Renal protective effect on ischemia-reperfusion renal failure model rat; format: in vivo; settings: 50 mg/kg twice daily by sonde, 2 days
Procedure: This condition model is typical acute renal failure model. To prepare the model, operated on wistar rats (male, body weight 150 g, 6 weeks aged) to remove right kidney, and on the following day, renal artery of remaining left kidney was apply a ligature with clip under general anesthesia. […] After preparing the ischemia-reperfusion model, test compound (TM-2002, 50 mg/kg body weight, twice a daily) was suspended in 0.5% carboxymethylcellulose. The suspension was coercively administered 2 days continuously using sonde, on third day kidney was obtained, and analysed pathologically (renal tubular stromal disorder score). In particular, the kidney was stained by PAS according to conventional method and the renal tubular stromal disorder was estimated for the presence or absence of renal tubular necrosis, renal tubular hypertrophy, renal tubular atrophia, renal tubular basal lamina thickening and cast in the sustained image of kidney. As well as biochemical analysis of blood was carried out (contract clinical analysis organization: SRL).

- condition of the solution ([3]; pH 2.0, after 24 hours): kept clear solution
- condition of the solution ([3]; pH 7.0, after 24 hours): observed precipitate
- condition of the solution ([3]; pH 8.0, after 24 hours): observed precipitate
- change of color of the solution ([3]; pH 7.0 and pH 8.0 solutions, after 24 hours): the change of color was shown
SMILES: Cc1ncc2c(c1O)C(c1c(C)nn(-c3ccccc3)c1O)OC2 (stereo not drawn) [compound 68, 1-(5-hydroxy-3-methyl-1-phenyl-1H-pyrazol-4-yl)-6-methyl-1,3-dihydro-furo[3,4-c]pyridin-7-ol]
- hyperexpression of ORP150 [1]: suppressed
- ORP150 positive staining site / ER stress in kidney [2]: decrease of positive staining site and suppressing ER stress
- BUN value ([4]; kidney on third day): improved
- urinary protein ([4]; kidney on third day): improved
- number of glomerular cells ([4]; p<0.0001): significantly suppressed
